Measured values taken from patent US20160047819A1, “METHOD FOR DIAGNOSING VAGINAL INFECTIONS” (priority 2013, published 2016).

Tested on: bacterial vaginosis
Assay: Remission of bacterial vaginosis at V3 by Amsel's criteria and Gram stain Nugent score
Type: in vivo, human
Description: Also provided is a diagnostic kit for use characterizing at least one protein useful for identifying the status of a vaginal infection. The kit includes instructions for carrying out a method of diagnosing vaginal infection using mass spectrometry. The diagnostic method of the invention has been tested on vaginal fluids collected from women enrolled in a clinical study of 80 Belgian pre-menopausal, non-pregnant women, aged between 18 and 50 years were analyzed. At the screening visit (V1) diagnosis of health or BV was made using both Amsel's criteria and Gram stain Nugent scoring. Patients with Nugent score >3 and positive for at least 3 of 4 Amsel's criteria were considered positive for BV. According to this clinical evaluation, women were divided into 2 groups: healthy subjects (H), (n=41) and patients diagnosed for BV (n=39). Patients who were diagnosed for BV at the study visit V1 were included in a multicenter, double-blind, randomised, placebo-controlled study reported in U.S. Ser. No. 13/559,013 (EudraCT: 2009-011826-32), that was performed to compare the efficacy of different doses of rifaximin vaginal tablets versus placebo for the treatment of BV. These patients underwent a randomisation visit and were distributed into four treatment groups: • group A received 100 mg rifaximin vaginal tablet once daily for 5 days (n=10), • group B received 25 mg rifaximin vaginal tablet once daily for 5 days (n=10), • group C received 100 mg rifaximin vaginal tablet once daily for the first 2 days and placebo vaginal tablet for the remaining 3 days (n=9), and • group D received placebo vaginal tablet once daily for 5 days (n=10).
After 7 to 10 days from the end of the therapy a follow-up visit (V3) was performed. Remission was evaluated at V3 according to Amsel's criteria (<3) and Gram stain Nugent score ([…]).
(§1) Patients who were diagnosed for BV at the study visit V1 were included in a multicentre, double-blind, randomised, placebo-controlled study (EudraCT: 2009-011826-32), that was performed to compare the efficacy of different doses of rifaximin vaginal tablets versus placebo for the treatment of BV. The patients underwent a randomization visit and were distributed into 4 treatment groups: group A received 100 mg rifaximin vaginal tablet once daily for 5 days (n=10), group B received 25 mg rifaximin vaginal tablet once daily for 5 days (n=10), group C received 100 mg rifaximin vaginal tablet once daily for the first 2 days and placebo vaginal tablet for the remaining 3 days (n=9), group D received placebo vaginal tablet once daily for 5 days (n=10). Study medication was administered intra-vaginally at bedtime. After 7 to 10 days from the end of the therapy a follow-up visit (V3) was performed. Remission was evaluated at V3 according to Amsel's criteria (<3) and Gram stain Nugent score (≦3) (Table 1).
as §1, with “randomisation” for “randomization”

[1] = group A: 100 mg vaginal tablet once daily for 5 days (n=10)
[2] = group B: 25 mg vaginal tablet once daily for 5 days (n=10)
[3] = group C: 100 mg vaginal tablet once daily for 2 days, then placebo 3 days (n=9)

CO[C@H]1/C=C/O[C@@]2(C)Oc3c(C)c(O)c4c(O)c(c5c(nc6cc(C)ccn65)c4c3C2=O)NC(=O)/C(C)=C\C=C\[C@H](C)[C@H](O)[C@@H](C)[C@@H](O)[C@@H](C)[C@H](OC(C)=O)[C@@H]1C [rifaximin]
women in remission after treatment [1]: 2 women | women not in remission after treatment [1]: 8 women | women in remission after treatment [2]: 5 women | women not in remission after treatment [2]: 5 women | women in remission after treatment [3]: 4 women | women not in remission after treatment [3]: 5 women | women in remission (R), all treatment groups (of 39 BV-affected women after rifaximin/placebo treatment): 11 women
